Source: PMC9354084 (ACS Chemical Neuroscience, 2022)
Where two headings read alike, the source gives them in different places.

What was measured:
CK-1δ [1] = molecular target: T1, CK-1δ (Homo sapiens, UniProt P48730); experiment: CK-1δ activity assay (KinaseGlo luminescence); type: biochemical; conditions: read-out: residual CK-1δ activity (%)
T1 construct: amino acids 1–294; GST (N); purchased Merck Millipore
T1 sequence (P48730 1-294): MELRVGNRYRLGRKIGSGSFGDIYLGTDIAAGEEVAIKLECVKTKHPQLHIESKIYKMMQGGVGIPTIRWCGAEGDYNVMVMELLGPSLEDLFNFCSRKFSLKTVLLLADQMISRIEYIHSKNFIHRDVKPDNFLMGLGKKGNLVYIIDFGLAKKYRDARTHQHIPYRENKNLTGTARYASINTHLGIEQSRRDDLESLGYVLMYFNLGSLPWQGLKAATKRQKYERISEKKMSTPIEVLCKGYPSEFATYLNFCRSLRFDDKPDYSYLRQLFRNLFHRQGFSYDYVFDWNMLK
Description: CK-1δ activity assay. Compounds were evaluated towards CK-1δ (Merck Millipore, recombinant human, amino acids 1–294, with N-terminal GST-tagged) with the KinaseGloR luminescence assay (Promega) […]
following procedures reported in literature.10 In detail, luminescent assays were performed in black 96-well plates, using a buffer composed of: 50 mM HEPES (pH 7.5), 1 mM EDTA, 1 mM EGTA, and 15 mM […]
solution was used as a negative control. In a typical assay, 10 μL of inhibitor solution (obtained using a 10 mM DMSO solution diluted in assay buffer to 160 μM that corresponds to a final concentration of 40 μM in the assay) and 10 μL (16 ng of CK1δ) of enzyme solution were added to the well, followed by 20 μL of assay buffer containing 0.1% casein substrate and 4 μM ATP. The final DMSO concentration in the reaction […]
After 60 min of incubation at 30 °C for CK1δ the enzymatic reactions were stopped with 40 μL of Kinase-Glo reagent (Promega). Luminescence signal (relative light unit,RLU) was recorded after 10 min at 25 °C using Tecan Infinite M100. The activity is proportional to the difference of the total and consumed ATP. The residual activities of the enzyme were calculated on the basis of maximal activities measured in the absence of inhibitor. Data were analyzed using Excel and percentages of enzyme residual activity are reported as means ± standard deviation of two independent experiments performed in […]

LH5 lymphoblasts = experiment: Antioxidant activity after menadione in healthy lymphoblasts; type: cell-based, human; conditions: LH5, 10 μM menadione 3 h, 10 µM compound pretreatment 21 h
[2] = test system: primary cerebellar granule neurons (CGNs); experiment: Neuroprotection on glutamate-mediated excitotoxicity in CGNs (MTT); conditions: 100 μM glutamate; for reversal of glutamate-mediated excitotoxicity: CGNs
[3] = PAMPA-BBB permeability assay; conditions: for Papp: PAMPA, PAMPA-BBB; for CNS prediction: predicted from PAMPA Pe
hMAO-A = molecular target: T2, hMAO-A (Homo sapiens, UniProt P21397); experiment: hMAO-A inhibitory activity (kynuramine, spectrophotometric); type: biochemical; conditions: for inhibition at 10 µM: read-out: hMAO-A inhibition at the highest concentration tested
T2 sequence (P21397 1-527): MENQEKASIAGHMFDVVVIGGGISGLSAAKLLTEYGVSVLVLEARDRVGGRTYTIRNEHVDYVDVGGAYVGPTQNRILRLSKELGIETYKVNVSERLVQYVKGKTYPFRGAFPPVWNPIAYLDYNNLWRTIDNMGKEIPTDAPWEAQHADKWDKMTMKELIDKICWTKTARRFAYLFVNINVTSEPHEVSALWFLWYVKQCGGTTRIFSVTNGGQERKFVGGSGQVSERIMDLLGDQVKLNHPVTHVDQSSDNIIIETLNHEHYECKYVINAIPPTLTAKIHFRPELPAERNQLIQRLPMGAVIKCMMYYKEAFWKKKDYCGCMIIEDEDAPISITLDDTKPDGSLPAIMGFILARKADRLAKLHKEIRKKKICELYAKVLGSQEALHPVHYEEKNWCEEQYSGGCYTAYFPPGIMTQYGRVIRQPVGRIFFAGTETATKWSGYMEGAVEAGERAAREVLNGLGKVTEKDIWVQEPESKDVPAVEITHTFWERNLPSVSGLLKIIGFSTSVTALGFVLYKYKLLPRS

LPS5 lymphoblasts [4] = experiment: Antioxidant activity after menadione in ALS patient lymphoblasts; type: cell-based, human; conditions: for rescue of cell viability after menadione: LPS5, 10 μM menadione 3 h, 10 µM compound pretreatment 21 h
[5] = test system: Bcl-2 expression in N9 microglial cells; experiment: Antiapoptotic effects in LPS-insulted N9 microglia, Bcl-2 Western blot; type: cell-based
hMAO-B = molecular target: T3, hMAO-B (Homo sapiens, UniProt P27338); experiment: hMAO-B inhibitory activity (kynuramine, spectrophotometric); type: biochemical; conditions: for SI: hMAO-B selectivity index = IC50 (hMAO-A)/IC50 (hMAO-B): bounds assume IC50 = 10 µM for inactive isoform; for inhibition at 10 µM: read-out: hMAO-B inhibition at the highest concentration tested
T3 sequence (P27338 1-520): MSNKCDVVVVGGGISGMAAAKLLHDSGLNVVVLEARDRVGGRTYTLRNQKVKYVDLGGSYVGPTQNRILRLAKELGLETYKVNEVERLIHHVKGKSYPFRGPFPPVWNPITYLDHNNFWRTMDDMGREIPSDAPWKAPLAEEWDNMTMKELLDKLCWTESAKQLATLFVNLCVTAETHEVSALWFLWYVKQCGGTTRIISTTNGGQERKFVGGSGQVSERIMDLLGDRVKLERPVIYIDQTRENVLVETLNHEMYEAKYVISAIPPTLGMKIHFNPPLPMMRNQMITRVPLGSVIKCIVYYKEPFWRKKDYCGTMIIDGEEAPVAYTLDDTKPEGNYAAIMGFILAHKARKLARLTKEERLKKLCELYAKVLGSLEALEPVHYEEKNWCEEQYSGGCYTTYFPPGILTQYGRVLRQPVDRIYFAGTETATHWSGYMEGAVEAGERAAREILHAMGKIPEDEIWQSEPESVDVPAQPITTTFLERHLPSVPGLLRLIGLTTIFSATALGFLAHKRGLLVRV

[6] = test system: iNOS expression in N9 microglial cells; experiment: Immunomodulation in LPS-insulted N9 microglia, iNOS Western blot; type: cell-based; conditions: LPS-insulted N9, 10 μM
LPS5 lymphoblasts [7] = experiment: Cell viability in mutSOD1 lymphoblasts (resazurin reduction); type: cell-based, human; conditions: LPS5 (mutSOD1), 1, 10, 100 µM, 24 h
[8] = Antioxidant activity after menadione in healthy lymphoblasts; type: cell-based, human; conditions: human, LH5 lymphoblast-derived cell line, read-out: cell viability after menadione insult
[9] = Antioxidant activity after menadione in ALS patient lymphoblasts; type: cell-based, human; conditions: human, LPS5 lymphoblast-derived cell line; LPS5, 50 μM menadione; read-out: cell viability after menadione insult
CK-1δ [10] = molecular target: T1, CK-1δ; conditions: cited from earlier work
[11] = pH 7.4, Pe, in vitro permeability coefficient, PBS pH 7.4, Pe ± SEM
[12] = Table S3, mean ± SD, highest concentration 10 µM, read-out: IC50 hMAO-A
[13] = Table S3, mean ± SD, highest concentration 10 µM, read-out: IC50 hMAO-B
[14] = pH 7.4, permeability coefficient (Pe)

SMILES | remaining activity at 40 µM (CK-1δ [1]) | Papp [3, 11] | CNS prediction [3] | IC50 (hMAO-A; [12]) | IC50 (hMAO-B; [13]) | inhibition at 10 µM (hMAO-A) | inhibition at 10 µM (hMAO-B) | other results
C#CCN(C)Cc1ccc2nc(N)sc2c1 [Compound 5] | 83.7% | 22.7 ± 0.6 ×10⁻⁶ cm/s | CNS + (CNS +: high BBB permeation predicted, Pe (×10-6 cm s-1) > 4.0) | 2.73 ± 0.39 µM | 9.31 ± 1.57 µM |  |  | rescue of cell viability after menadione (LH5 lymphoblasts): a better restorative activity trend than the combination; reversal of glutamate-mediated excitotoxicity ([2]; compound 1, 10, 25 μM): no significant changes; IC50 (hMAO-A; read-out: hMAO-A IC50): 2.7 ± 0.4 µM; rescue of cell viability after menadione (LPS5 lymphoblasts [4]): no significant effects; Bcl-2 expression ([5]; LPS-insulted N9, 10 μM): a trend of recovery in Bcl-2 expression; SI: hMAO-B selectivity index = IC50 (hMAO-A)/IC50 (hMAO-B) (hMAO-B): 0.29; IC50 (hMAO-B; read-out: hMAO-B IC50): 9.3 ± 1.6 µM
C#CCN[C@@H]1CCc2ccccc21 [Compound 2, rasagiline, reference compound] |  |  |  |  |  |  |  | iNOS expression [6]: moderate decrease of iNOS expression; Bcl-2 expression ([5]; LPS-insulted N9, 1 or 10 μM): increased the level of the anti-apoptotic Bcl-2 marker
CO/N=C(\C(=O)N[C@@H]1C(=O)N2C(C(=O)O)=C(COC(N)=O)CS[C@H]12)c1ccco1 [cefuroxime, reference compound] |  | 0.62 ± 0.16 ×10⁻⁶ cm/s | CNS - (CNS -: low BBB permeation predicted, Pe (×10-6 cm s-1) < 2.0) |  |  |  |  | 
C#CCNc1nc2ccc(N(CC#C)C(C)=O)cc2s1 [Compound 6] | 85.2% | 10.2 ± 0.25 ×10⁻⁶ cm/s | CNS + (CNS +: high BBB permeation predicted, Pe (×10-6 cm s-1) > 4.0) | 6.88 ± 0.46 µM | > 10 µM |  |  | rescue of cell viability after menadione (LH5 lymphoblasts): a better restorative activity trend than the combination; reversal of glutamate-mediated excitotoxicity ([2]; compound at 1 and 10 μM): restored viability; reduction of iNOS level [6]: about 60%; Papp [3, 14]: 10.1 ± 0.2 ×10⁻⁶ cm/s; IC50 (hMAO-A; read-out: hMAO-A IC50): 6.9 µM; rescue of cell viability after menadione (LPS5 lymphoblasts [4]): no significant effects; cytotoxic effects, cell viability (LPS5 lymphoblasts [7]): no toxicity; Bcl-2 expression ([5]; LPS-insulted N9, 10 μM): not evident; Bcl-2 expression ([5]; LPS-insulted N9, 1 or 10 μM): no increase in the level of the Bcl-2 anti-apoptotic marker; SI: hMAO-B selectivity index = IC50 (hMAO-A)/IC50 (hMAO-B) (hMAO-B): < 0.69
CC1=CC(=O)c2ccccc2C1=O [menadione, 2-methyl-1,4-naphthoquinone, reference compound] |  |  |  |  |  |  |  | viability at 3 h, 10 µM ([8]; LH5, 10 μM menadione): 80%; viability at 3 h, 50 µM ([8]; LH5, 50 μM menadione): ~40%; cytotoxic effect of menadione (LPS5 lymphoblasts [4]; LPS5, 10 μM menadione): unable to cause a cytotoxic effect; viability at 3 h, 50 µM [9]: ~80%
C#CCNCc1ccc2nc(N)sc2c1 [Compound 4] | 69% | 9.3 ± 0.1 ×10⁻⁶ cm/s | CNS + (CNS +: high BBB permeation predicted, Pe (×10-6 cm s-1) > 4.0) | > 10 µM | > 10 µM | < 50% | < 50% | 
C#CCN(CC#C)Cc1ccc2nc(N)sc2c1 [Compound 3] | 64.4% | 24.9 ± 0.25 ×10⁻⁶ cm/s | CNS + (CNS +: high BBB permeation predicted, Pe (×10-6 cm s-1) > 4.0) | > 10 µM | > 10 µM | < 50% | < 50% | melting point: 148 °C
Nc1nc2ccc(OC(F)(F)F)cc2s1 [Compound 1, riluzole, reference compound] |  |  |  | 8.71 ± 0.81 µM | > 10 µM |  |  | rescue of cell viability after menadione (LH5 lymphoblasts): a viability recovery trend; iNOS expression [6]: moderate decrease of iNOS expression; IC50 (hMAO-A; read-out: hMAO-A IC50): 8.7 µM; IC50 (CK-1δ [10]; read-out: IC50 against CK1δ): 16.1 µM; Bcl-2 expression ([5]; LPS-insulted N9, 1 or 10 μM): increased the level of the anti-apoptotic Bcl-2 marker
N[C@@H](CCC(=O)O)C(=O)O [glutamate, reference compound] |  |  |  |  |  |  |  | viability of CGNs exposed to glutamate ([2]; compared with the control): 80%
C#CCNC1CCc2nc(N)sc2C1 (stereo not shown) [Compound 7] |  | 7.7 ± 1 ×10⁻⁶ cm/s | CNS + (CNS +: high BBB permeation predicted, Pe (×10-6 cm s-1) > 4.0) | > 10 µM | > 10 µM | < 50% | < 50% | Papp [3, 14]: 7.7 ± 1 ×10⁻⁶ cm/s
CC[C@H](CO)Nc1nc(NCc2ccc(-c3ccccn3)cc2)c2ncn(C(C)C)c2n1 [CR8] |  |  |  |  |  |  |  | IC50 (CK-1δ [10]; read-out: IC50 (positive control)): 0.4 µM
C#CCNc1nc2c(s1)CC(N(CC#C)C(C)=O)CC2 (stereo not shown) [Compound 8] |  | 4.6 ± 0.6 ×10⁻⁶ cm/s | CNS + (CNS +: high BBB permeation predicted, Pe (×10-6 cm s-1) > 4.0) | > 10 µM | > 10 µM | < 50% | < 50% | Papp [3, 14]: 4.6 ± 0.6 ×10⁻⁶ cm/s
